Results on 89 compounds are retold here after a melting point compilation (Tetko et al.; mined from patent text by program, amines drawn as free bases though some values may be those of a salt).

A word on the melting point: it is the temperature of the solid-liquid transition. As to `CN(C)C=C(C#N)C(=O)Nc1c(F)cccc1F`, the melting point lay in the range of 180 to 181 °C.
In the case of `Cc1cncc(C(=O)OC(C)c2nc3c(c(=O)n(C)c(=O)n3C)n2C)c1` (centres undefined), the melting point worked out at 110 °C.
The compound `COc1ccc(Nc2nc(NC3CCCCCC3)nc(Oc3ccc(I)cc3)n2)cc1Cl` yielded a melting point of 80 to 82 °C.
For the compound `O=C1CCOc2ccc([N+](=O)[O-])cc21`, the melting point fell in the range of 171 to 173 °C.
In the case of `COC(=O)c1ccc(O)c(O)c1O`, the melting point worked out at 221 °C.
As to `Cc1nnc2n1-c1ccccc1NC2(C)C`, the melting point lay within 177 to 178 °C.
The compound `CS(=O)(=O)C1CCCC1Br` (centres undefined) returned a melting point of 50 to 52 °C.
Consider `Cc1ccc2nc3ccc(=O)c(Cl)c-3sc2c1`, for which the melting point worked out at 218 °C.
Turning to `CC1(C)Oc2ccc(C#N)cc2[C@@H](OC2=CC(=O)OC2)[C@@H]1O` (relative stereo), the melting point is 111 to 114 °C.
`Cc1cc(=O)c(C(=O)Nc2ccccc2)c(-c2ccccc2)o1` yielded a melting point of 222 to 226 °C.
Next, `CCOC(=O)C(CC)C(=O)N1NCCCC1C(=O)OC(C)(C)C` (centres undefined): 78 to 79 °C; `CCOC1=NC(C)(C)NC(N)=N1`: 175 to 178 °C.
On to `Oc1ccc(-c2nc(Cn3ccnn3)cs2)cc1`, for which the melting point lay within 164 to 166 °C.
For `N=C(NC(=O)c1ccccc1)N1CCc2[nH]cnc2C1`, the melting point came to 228 °C.
Take `O=C(O)c1cc(Br)no1`: the melting point was 176 to 177 °C.
Regarding `CCOC(=O)C=CN1C(C)(C)CC(N(C=O)CCCCCCN(C=O)C2CC(C)(C)N(C=CC(=O)OCC)C(C)(C)C2)CC1(C)C`, the melting point came out at 172 °C.
For the compound `Cc1c(C)c2c(c(C)c1OC=O)SC(CCCI)O2` (centres undefined), the melting point is 91 to 93 °C.
The compound `COC(=O)c1nn(Cc2ccc(Cl)c(Cl)c2)c(=O)c2cc(OC)ccc12` registered a melting point of 144 to 146 °C.
In the case of `COc1ccc(-c2cc(=O)n(Cc3ccccc3)nc2-c2ccc(OC)cc2)cc1`, the melting point was 145 to 146 °C.
As for `CS(=O)(=O)NC(=O)C1(CCCCCCCCCCCCC2(C(=O)NS(C)(=O)=O)CC2)CC1`, the melting point turned out to be 148 °C.
In turn, `CCc1nn(CC(N)=O)c(CC)c1Oc1cc(Cl)cc(Cl)c1` showed a melting point of 164 to 166 °C.
`Cc1cccc2[nH]c3c4c(Cl)cccc4nc-3cc12` showed a melting point of 170 to 172 °C.
Next, `COC(=O)C(CC1(C)C(=O)Nc2ccccc21)NC(=O)c1ccc(Cl)cc1` (centres undefined): 201 to 202 °C; `O=c1[nH]c2cc(Cl)c(Cl)c(-c3ccncc3)c2[nH]c1=O`: greater than 300 °C.
In the case of `COC(=O)C(=O)c1ccc(OCCOc2ccc3ccccc3c2)c(F)c1`, the melting point lay in the range of 136 to 138 °C.
Compound `CCCc1nn(C)c2c(=O)n(CCOc3ccc(NC(C)=O)cc3)c(CC)nc12` displayed a melting point of 100 to 104 °C.
The result for `CCOC(=S)c1ncncc1C` reads 99 to 100 °C.
Next, `Cc1cc(-n2ccnc2)c2cccc(OCc3c(Cl)ccc(S(=O)(=O)N4CCC[C@H]4C(=O)NCC4CCN(Cc5ccccn5)CC4)c3Cl)c2n1`: 100 °C; `FC(F)(F)Oc1ccc2c(c1)nc(/C=C/c1ccccc1)n2-c1ccccn1`: 92 to 93 °C; `CN(C)c1ccc(C2(c3ccc(N(C)C)cc3N(C)C)OC(=O)c3c(Cl)c(Cl)c(Cl)c(Cl)c32)c(N(C)C)c1`: 195 to 197 °C.
Next, `C[C@@H]1CN(C(=O)OC(C)(C)C)C[C@H]2Cc3cc(F)cnc3N21`: 56.6 to 58.4 °C; `C#CCOc1cc2ccccc2cc1COC(=O)C1CC1`: 58 to 60 °C.
Turning to `CC(=O)c1c(N(C)C)c(-c2ccccc2)n(Cc2ccc(Cl)cc2)c1C`, the melting point is 118 to 119 °C.
In turn, `C=C1CCn2c(CCc3ccccc3)nc3cccc1c32` had a melting point of 81 to 82.2 °C.
The result for `CCNC(NC(C)=O)C(=O)NCc1ccccc1` (centres undefined) reads 123 to 125 °C; that for `CNc1nc(Br)cc(S(=O)(=O)c2ccc(N)cc2)n1`, greater than 250 °C.
`NC(=O)CC1C=CC=CC1(F)F` (centres undefined) showed a melting point of 113 to 114 °C.
`CCCCCCCCCCCCc1nnn(C(C(=O)O)C(C)C)n1` (centres undefined) returned a melting point of 39 to 42 °C.
With `CCC(CC)n1nnc2c(Nc3c(C)cc(C)cc3C)nc(C)cc21`, the melting point fell in the range of 140 to 142 °C.
The compound `CC(C)Nc1nc2ccccn2c(=O)c1Br` displayed a melting point of 101 to 104 °C.
Next, `CCOC(=O)C(C#N)=CNc1ncccc1C`: 139 to 143 °C; `O=c1[nH]c2ccccc2n1CCCN1CCC(O)(c2ccc(F)cc2)CC1`: 135 °C.
Take `CC(C)(C)OOC(C)(CCC(=O)N(N)C(=O)OCCOCCOC(=O)N(N)C(=O)CCC(C)(OOC(C)(C)C)OOC(C)(C)C)OOC(C)(C)C`: the melting point is 45 to 50 °C.
`O=C1C(F)N(c2ccc(Oc3ccccc3)cc2)C(=S)N1c1ccccc1` (centres undefined) yielded a melting point of 126 °C.
As for `Nc1cccc(-c2ccnc3c(Br)cnn23)c1`, the melting point was in the range of 120 to 121 °C.
Next, `O=C1CCCc2c1ccc(O)c2Br`: 183 to 186 °C; `Cc1ccc(-c2nc(CCCOS(=O)(=O)c3ccc(C)cc3)c(C(F)(F)F)o2)cc1`: 57 to 58 °C.
In turn, `O=C1c2c(Cl)ccc(Cl)c2-c2nn(CCNCCO)c3ccc(NCCNCCO)c1c23` yielded a melting point of 196 °C.
With `Cc1cc(SC(C)CC(Sc2cc(C)c(O)c(C(C)(C)C)c2)Sc2cc(C)c(O)c(C(C)(C)C)c2)cc(C(C)(C)C)c1O` (centres undefined), the melting point lay within 65 to 69 °C.
In the case of `FC(F)Sc1nnc(-c2cnccn2)s1`, the melting point lay within 113 to 115 °C.
As to `O=C(Nc1ccc(Br)cc1)C(=O)N1CCC(Cc2ccccc2)CC1`, the melting point is 131 to 132 °C.
Next, `COC(=O)[C@H]1CC[C@@H](c2c(-c3ccccc3)n(C)c3ccccc32)CC1`: 141 to 142 °C.
The compound `CN(CCc1c[nH]c2ccc(NC(N)=O)cc12)C(=O)C(F)(F)F` registered a melting point of 193 to 194 °C.
As to `O=C(Nc1nc(C(Cl)(Cl)Cl)ns1)c1ccccc1`, the melting point is 190 °C.
`C=CCC1(C(C)(C)C(=O)O)C(=O)NC(=O)NC1=O` gave a melting point of 202 to 203 °C.
`CC(C)(C)c1cc(N2C(=O)c3ccccc3C2=O)cc(C(C)(C)C)c1O` had a melting point of 196 to 201 °C.
Take `N#Cc1ccc(CC(NC(=O)OCc2ccccc2)C(=O)Nc2cccc(C(=O)NCCC(=O)OCc3ccccc3)c2)cc1` (racemic): the melting point was in the range of 145 to 146 °C.
Next, `COc1cc2ncnc(N3CCN(C(=O)Nc4ccc(N(C)C)cc4)CC3)c2cc1OC`: 252 to 254 °C; `COc1ccc(C(=O)c2cccc(CC(=O)O)c2)cc1`: 138 to 140 °C; `CC(C)(O)CC(O)c1cccc(OCc2ccc3ccccc3n2)c1` (centres undefined): 117 to 124 °C.
In turn, `Cc1cc(C(C)(C)CCl)c(Cl)nn1` showed a melting point of 41 to 42 °C.
The result for `Nc1nc(N)nc(-c2ccc(-c3ccc(F)cc3)cc2)n1` reads greater than 260 °C; that for `CCOC(=O)CC(=O)NC(Cc1ccccc1)C(C)=O` (centres undefined), 68 to 69 °C.
The compound `CC(=O)CCCCC(=O)Nc1ccc(CCC(=O)O)cc1` yielded a melting point of 148 to 160 °C.
`Cc1c(NC(=O)c2ccc(C3CCCCC3)cc2)ccc2cc(CN3CCCC3)cnc12` came in with a melting point of 178 to 179 °C.
In turn, `O=c1[nH]c(=Cc2ccco2)c(=O)[nH]c1=Cc1ccc(OCc2ccccc2)cn1` registered a melting point of 256 to 257 °C.
Next, `C#CCOc1ccc(C(=O)C=Cc2cccs2)c(O)c1`: 83 to 85 °C; `CCCCC(=NCC(=O)OCC)c1cc(Cl)ccc1N`: 96 to 97 °C; `C[C@@H]1CN(c2ccc([N+](=O)[O-])cc2C#N)C[C@H](C)N1`: 109 to 110 °C.
In turn, `CC(=C(C#N)C(N)=O)c1ccc(Cl)cc1` came in with a melting point of 165 to 167 °C.
Turning to `CN(C)CCCn1cc(Br)c2c3c(c(-c4ccccc4Cl)cc21)C(=O)NC3=O`, the melting point is 160 to 162 °C.
For the compound `OC1CC=C(c2ccc(Cl)cc2)CC1` (centres undefined), the melting point lay within 108 to 112 °C.
Regarding `COc1c(C#N)cc(-c2c3ccccc3cc3sc4ccccc4c23)cc1C#N`, the melting point is 214 to 215 °C.
Next, `COc1cc2c(cc1OC(C)C)-c1c(-c3cccs3)c3c(n1CC2)C(=O)N(C(C)C)CCN(C(=O)OC(C)(C)C)C3`: 205 to 206 °C.
Take `COc1ccccc1N1CCN(CCCNC(=O)c2cccc3c(=O)c(C)c(C4CC4)oc23)CC1`: the melting point was in the range of 139 to 141 °C.
The result for `OCc1c(-c2ccccc2)c(-c2ccccc2)nn1Cc1ccccc1` reads 138 °C.
`CC(C)n1cc(-c2nn(-c3cccc(C(F)(F)F)c3)ccc2=O)c(-c2ccccc2)n1` showed a melting point of 138 to 140 °C.
Regarding `O=c1c2c(Cc3ccccc3)n[nH]c2c2cccnc2n1-c1ccc(O)cc1`, the melting point is greater than 320 °C.
The result for `COc1c(Cl)ccc(-c2nc(OC)c3c(ncn3C)n2)c1F` reads 191 to 192 °C; that for `O=C(O)CCCc1cc2nc(Cl)ccc2n1S(=O)(=O)c1cccc(-c2cncs2)c1`, 157 to 160 °C.
`O=C(NC(=O)N1CCSC1c1ccccc1OCCN1CCN(c2cccc(F)c2)CC1)c1ccccc1` (centres undefined): the melting point fell in the range of 125 to 127 °C.
The result for `Cc1ccc(S(C)(=O)=O)cc1-c1n[nH]c2nc(Oc3ccc(F)cc3F)ncc12` reads 133 to 135 °C; that for `Cc1oc(=O)oc1Cn1cc[nH]c(=O)c1=O`, 225 to 226 °C.
Next, `COc1ccc(Cn2c(=O)ccc3cnc(N4CCC[C@H]4CO)nc32)cc1Cl`: 142 to 143 °C; `COc1ccc(C2=NN(C3CCN(S(=O)(=O)c4ccc(C)cc4)CC3)C(=O)[C@H]3CC=CC[C@@H]23)cc1Cl` (relative stereo): 198 to 199 °C; `Cc1cc(C2(C3CC3)CC(c3ccc(Cl)cc3)=NO2)ccc1NC(=O)c1cccc(I)c1C(=O)NC(C)C` (centres undefined): 178 to 180 °C.
Next, `COc1ccc2c(c1)[C@H]1Cc3ccccc3[C@H]1N2` (relative stereo): 101 °C; `O=C1OC(N2C(=O)NC(=O)C23C(=O)N(Cc2ccc(Cl)c(Cl)c2)c2ccccc23)c2ccccc21` (centres undefined): 154 to 158 °C; `COc1ccc2ccnc(N)c2c1`: 128 to 130 °C.
